Measurements reported in PubChem BioAssay AID330 (DTP/NCI, 2004).
Values joined by “and” are separate entries in the source; they are usually repeats but may differ in a detail not shown here. Identical values can stand only once. Toxic doses and inconclusive results are not listed. The calls were made as follows: active = survival T/C of 150% or more; inactive = T/C below 125% in these data. Peptide text beside a SMILES is read from it. * marks the point of attachment. Trt = c1ccc(C(c2ccccc2)(c2ccccc2)*)cc1; Boc = CC(C)(C)OC(=O)*; Bn = c1ccc(C*)cc1

Tested on: P388 leukemia ip, CD2F1 mice, survival T/C
Experiment: NCI In Vivo Anticancer Drug Screen. Data for tumor model P388 Leukemia (intraperitoneal) in CD2F1 (CDF1) mice
Conditions: endpoint: median survival time, higher = longer survival
Summary of the method: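 Mice carrying the transplanted tumor received test compound or vehicle. Survival was recorded in each group, and the value is the treated-group measurement divided by that of the vehicle-treated control group.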

[1] = dose: 1.56 mg/kg/injection, schedule: Q01DX009 (ip), vehicle: saline
[2] = dose: 50.0 mg/kg/injection, schedule: Q01DX005 (ip), vehicle: saline with Tween-80
[3] = dose: 100.0 mg/kg/injection, schedule: Q01DX005 (ip), vehicle: saline with Tween-80
[4] = dose: 200.0 mg/kg/injection, schedule: Q01DX005 (ip), vehicle: saline with Tween-80
[5] = dose: 12.5 mg/kg/injection, schedule: Q01DX009 (ip), vehicle: saline with Tween-80
[6] = dose: 50.0 mg/kg/injection, schedule: Q01DX009 (ip), vehicle: Klucel (hydroxypropylcellulose) (HPC)
[7] = dose: 100.0 mg/kg/injection, schedule: Q01DX009 (ip), vehicle: Klucel (hydroxypropylcellulose) (HPC)
[8] = dose: 100.0 mg/kg/injection, schedule: Q01DX001 (ip), vehicle: saline with Tween-80
[9] = dose: 200.0 mg/kg/injection, schedule: Q01DX001 (ip), vehicle: saline with Tween-80
[10] = dose: 400.0 mg/kg/injection, schedule: Q01DX001 (ip), vehicle: saline with Tween-80
[11] = dose: 50.0 mg/kg/injection, schedule: Q01DX005 (ip), vehicle: Klucel (hydroxypropylcellulose) (HPC)
[12] = dose: 100.0 mg/kg/injection, schedule: Q01DX005 (ip), vehicle: Klucel (hydroxypropylcellulose) (HPC)
[13] = dose: 200.0 mg/kg/injection, schedule: Q01DX005 (ip), vehicle: Klucel (hydroxypropylcellulose) (HPC)
[14] = dose: 100.0 mg/kg/injection, schedule: Q04DX003 (ip), vehicle: Klucel (hydroxypropylcellulose) (HPC)
[15] = dose: 200.0 mg/kg/injection, schedule: Q04DX003 (ip), vehicle: Klucel (hydroxypropylcellulose) (HPC)

Measured: T/C

CCCCCCCCCCCCC[N+]1(CC)CCCCC1
inactive: dose: 0.78 mg/kg/injection, schedule: Q01DX009 (ip), vehicle: saline 105 % of control | [1] 118 % of control | dose: 3.12 mg/kg/injection, schedule: Q01DX009 (ip), vehicle: saline 110 % of control

S=C1N(c2ccc(Br)cc2)C2=Nc3ccccc3SC(=C2N=Nc2ccccc2Cl)N1c1ccc(Cl)cc1
inactive: [2] 97 % of control | [3] 93 % of control | [4] 93 % of control

Cc1cc(N=Nc2cc(C)c(NC(=O)c3ccc(NC(=O)c4ccc(N)cc4)cc3)cc2C)ccc1N=Nc1ccc2cc(S(=O)(=O)O)cc(S(=O)(=O)O)c2c1
inactive: [2] 110 % of control | [3] 111 % of control | [4] 110 % of control

ClCc1cccc2c(CCl)cccc12
inactive: [5] 113 % of control | dose: 25.0 mg/kg/injection, schedule: Q01DX009 (ip), vehicle: saline with Tween-80 110 % of control and 124 % of control | dose: 50.0 mg/kg/injection, schedule: Q01DX009 (ip), vehicle: saline with Tween-80 121 % of control

CC(NC(=O)C(C)NC(=O)OC(C)(C)C)C(=O)O (stereo unspecified)
inactive: [2] 100 % of control | [3] 101 % of control | [4] 101 % of control

O=C1c2ccccc2S(=O)(=O)N1CCN(CCN1C(=O)c2ccccc2S1(=O)=O)c1ccccc1
inactive: [6] 92 % of control | [7] 100 % of control | dose: 200.0 mg/kg/injection, schedule: Q01DX009 (ip), vehicle: Klucel (hydroxypropylcellulose) (HPC) 100 % of control

[N-]=[N+]=CC(=O)Oc1ccc([N+](=O)[O-])cc1
inactive: dose: 3.13 mg/kg/injection, schedule: Q01DX009 (ip), vehicle: other 100 % of control | dose: 6.25 mg/kg/injection, schedule: Q01DX009 (ip), vehicle: other 98 % of control | dose: 12.5 mg/kg/injection, schedule: Q01DX009 (ip), vehicle: other 104 % of control | dose: 25.0 mg/kg/injection, schedule: Q01DX009 (ip), vehicle: other 98 % of control and 97 % of control | dose: 50.0 mg/kg/injection, schedule: Q01DX009 (ip), vehicle: other 89 % of control

C=CCSc1nc(-c2ccc(Cl)cc2)c(C#N)c(=O)[nH]1
inactive: [8] 100 % of control | [9] 97 % of control | [10] 92 % of control

Cc1cc(NCCCCN2CCOCC2)nc2ccc3ccccc3c12
inactive: [2] 101 % of control | [3] 105 % of control

CCOC(=O)CNC(=O)C(CSCc1ccccc1)NC(=O)C(CSC(c1ccccc1)(c1ccccc1)c1ccccc1)NC(=O)OC(C)(C)C (stereo unspecified) (Boc-Cys(Trt)-Cys(Bn)-Gly-OEt; configuration not given here)
inactive: [11] 101 % of control | [12] 101 % of control | [13] 99 % of control

O=C(c1ccccc1)C1C(c2ccccc2)C2(CCCCC2=O)C(c2ccccc2)CC1(O)c1ccccc1 (stereo unspecified)
inactive: dose: 3.12 mg/kg/injection, schedule: Q01DX001 (ip), vehicle: Klucel (hydroxypropylcellulose) (HPC) 98 % of control | dose: 6.25 mg/kg/injection, schedule: Q01DX001 (ip), vehicle: Klucel (hydroxypropylcellulose) (HPC) 86 % of control | dose: 12.5 mg/kg/injection, schedule: Q01DX001 (ip), vehicle: Klucel (hydroxypropylcellulose) (HPC) 86 % of control | dose: 25.0 mg/kg/injection, schedule: Q01DX001 (ip), vehicle: Klucel (hydroxypropylcellulose) (HPC) 86 % of control

c1ccc(Sc2cccc3ccccc23)cc1
inactive: dose: 100.0 mg/kg/injection, schedule: Q04DX003 (ip), vehicle: saline with Tween-80 95 % of control | dose: 200.0 mg/kg/injection, schedule: Q04DX003 (ip), vehicle: saline with Tween-80 109 % of control | dose: 400.0 mg/kg/injection, schedule: Q04DX003 (ip), vehicle: saline with Tween-80 104 % of control

CC1C=CC(C)C2C(=O)C3C(C)C=CC(C)C3C(=O)C12 (stereo unspecified)
inactive: [11] 93 % of control | [12] 97 % of control | [13] 87 % of control

O=C1CS(=O)(=O)CN1c1ccc(Cl)c(Cl)c1
inactive: dose: 50.0 mg/kg/injection, schedule: Q01DX005 (ip), vehicle: acetone 112 % of control | dose: 100.0 mg/kg/injection, schedule: Q01DX005 (ip), vehicle: acetone 109 % of control | dose: 200.0 mg/kg/injection, schedule: Q01DX005 (ip), vehicle: acetone 109 % of control

Cc1ccc(N2C(=O)CSC2=S)cc1Br
inactive: dose: 50.0 mg/kg/injection, schedule: Q01DX009 (ip), vehicle: suspension in saline 93 % of control | dose: 100.0 mg/kg/injection, schedule: Q01DX009 (ip), vehicle: suspension in saline 105 % of control | dose: 200.0 mg/kg/injection, schedule: Q01DX009 (ip), vehicle: suspension in saline 93 % of control

O=C(O)/C(Cl)=C(\Cl)C(=O)Nc1c(Cl)cccc1Cl
inactive: dose: 60.0 mg/kg/injection, schedule: Q01DX005 (ip), vehicle: saline with Tween-80 101 % of control | dose: 120.0 mg/kg/injection, schedule: Q01DX005 (ip), vehicle: saline with Tween-80 100 % of control

Cc1noc(NC(=O)Nc2ccccc2F)c1C#N
inactive: [2] 91 % of control | [3] 100 % of control

CCOC(=O)N(CCCl)C(=O)C(C)C
inactive: [8] 104 % of control | [9] 100 % of control | [10] 104 % of control

C[N+](C)(C)CCOS(C)(=O)=O
inactive: dose: 1.56 mg/kg/injection, schedule: Q01DX009 (ip), vehicle: Klucel (hydroxypropylcellulose) (HPC) 90 % of control and 93 % of control | [1] 101 % of control | dose: 3.13 mg/kg/injection, schedule: Q01DX009 (ip), vehicle: Klucel (hydroxypropylcellulose) (HPC) 99 % of control | dose: 3.13 mg/kg/injection, schedule: Q01DX009 (ip), vehicle: saline 111 % of control and 95 % of control | dose: 6.25 mg/kg/injection, schedule: Q01DX009 (ip), vehicle: Klucel (hydroxypropylcellulose) (HPC) 89 % of control (2×) and 94 % of control | dose: 6.25 mg/kg/injection, schedule: Q01DX009 (ip), vehicle: saline 90 % of control | dose: 12.5 mg/kg/injection, schedule: Q01DX009 (ip), vehicle: saline 92 % of control

Cc1cc(=O)c2cc3ccc4cccc5ccc(c2[nH]1)c3c45
inactive: [2] 98 % of control | [3] 103 % of control | [4] 100 % of control

CCSC(=NC)Nc1ccc(Oc2ccc(Cl)cc2)cc1
inactive: dose: 12.5 mg/kg/injection, schedule: Q01DX005 (ip), vehicle: Klucel (hydroxypropylcellulose) (HPC) 101 % of control and 102 % of control | dose: 25.0 mg/kg/injection, schedule: Q01DX005 (ip), vehicle: Klucel (hydroxypropylcellulose) (HPC) 105 % of control and 106 % of control | [11] 102 % of control and 109 % of control and 123 % of control | [12] 100 % of control and 106 % of control and 107 % of control

COC1/C=C\CC2=CCCC=C2CC1 (stereo unspecified)
inactive: dose: 25.0 mg/kg/injection, schedule: Q01DX009 (sc), vehicle: olive oil, sesame oil, peanut oil 100 % of control | dose: 50.0 mg/kg/injection, schedule: Q01DX009 (sc), vehicle: olive oil, sesame oil, peanut oil 97 % of control | dose: 100.0 mg/kg/injection, schedule: Q01DX009 (sc), vehicle: olive oil, sesame oil, peanut oil 97 % of control | dose: 200.0 mg/kg/injection, schedule: Q01DX009 (sc), vehicle: olive oil, sesame oil, peanut oil 95 % of control

Cc1ccc(S(=O)(=O)N/N=C/c2ccsc2)cc1
inactive: [14] 92 % of control | [15] 106 % of control | dose: 400.0 mg/kg/injection, schedule: Q04DX003 (ip), vehicle: Klucel (hydroxypropylcellulose) (HPC) 100 % of control

CCCCCCCCCCCCCCCCCC1=NC(C)CC(C)(C)O1 (stereo unspecified)
inactive: dose: 100.0 mg/kg/injection, schedule: Q01DX009 (ip), vehicle: saline 95 % of control | dose: 200.0 mg/kg/injection, schedule: Q01DX009 (ip), vehicle: saline 104 % of control

O=C(Nc1cccc(Cl)c1)c1cc(N=Nc2ccc([N+](=O)[O-])cc2Cl)ccc1O
inactive: dose: 12.5 mg/kg/injection, schedule: Q01DX009 (ip), vehicle: Klucel (hydroxypropylcellulose) (HPC) 104 % of control | [5] 105 % of control | dose: 25.0 mg/kg/injection, schedule: Q01DX009 (ip), vehicle: Klucel (hydroxypropylcellulose) (HPC) 113 % of control | dose: 25.0 mg/kg/injection, schedule: Q04DX003 (ip), vehicle: Klucel (hydroxypropylcellulose) (HPC) 107 % of control | [6] 113 % of control | dose: 50.0 mg/kg/injection, schedule: Q04DX003 (ip), vehicle: Klucel (hydroxypropylcellulose) (HPC) 107 % of control | [7] 118 % of control | [14] 115 % of control | [15] 115 % of control
